Test system: trained experts
Test: Monkfruit juice beverage taste comparison, trained experts
Conditions: 0.000001% cut of 1% 2,6-nonadienal in ethyl acetate, used at 0.10% in Monkfruit beverage (juice concentrate 0.15%); three trained experts
Experimental: A taste comparison was conducted by combining and mixing 0.000001% cut of 1% 2,6-nonadienal (I % in ethanol) in ethyl acetate and used that dilution at 0.10% in a Monkfruit beverage in water, wherein Monkfruit juice concentrate was present at 0.15%. Three trained experts evaluated the combination against a control of Monkfruit juice without the taste modulation compound.

Structure (SMILES): CCC=CCCC=CC=O [2,6-nonadienal]
- modulation of off-notes of Monkfruit juice versus control: demonstrated a modulation of the off-notes
